According to PMC11224556, “Next-generation of BBQ analogues that selectively target breast cancer” (Frontiers in Chemistry, 2024):
Like-named read-outs stand apart in the source and are kept apart here.

Assays:
Format in all cases: cell-based, human
A2780 (ovary) cells = assay: MTT growth inhibition assay (72 h)
From the text: (§1) Each BBQ analogue, 2-14 was screened for their growth inhibition ability (GI50) in a broad panel of cancer cell lines and a non-cancer breast cell line (MCF10A), using the MTT growth inhibition assay (Table 1) ([Baker et al., 2021b]). The cancer panel comprised HT29 (colorectal), U87 (brain), SJ-G2 (brain), A2780 (ovary), Du145 (prostate), BE2-C (neuronal), MIA (pancreas), H460 (lung, ER+), A431 (vulva, ER+ (estrogen receptor positive)), and a wide selection of breast cancer cell lines with varying receptor status including MCF-7 (ER + luminal A), T47D (ER/PR+ (progesterone receptor positive)luminal A), ZR-75-1 (ER/PR + luminal A), BT-474 (ER/PR/HER2+ luminal B), SKBR-3 (HER2+), MDA-MB-468, BT20, and MDA-MB-231 (basal, triple negative (TN) for ER, PR, and HER2).
(§2) Stock solutions were prepared as follows and stored as 20 mM DMSO solutions at −20 °C. All cell lines were cultured in a humidified atmosphere 5% CO2 at 37 °C. The cancer cell lines were maintained in Dulbecco’s modified Eagle’s medium (DMEM) (Trace Biosciences, Australia) supplemented with 10% foetal bovine serum (FBS), 10 mM sodium bicarbonate, penicillin (100 IU/mL), streptomycin (100 μg/mL), and glutamine (4 mM). The non-cancer MCF10A cell line was cultured in DMEM:F12 (1:1) cell culture media, 5% heat inactivated horse serum, supplemented with penicillin (50 IU/mL), streptomycin (50 μg/mL), 20 mM Hepes, L-glutamine (2 mM), epidermal growth factor (20 ng/mL), hydrocortisone (500 ng/mL), cholera toxin (100 ng/mL), and insulin (10 μg/mL). The AhR reporter cell line HT29-Lucia™ (Invivogen, United States) was maintained in DMEM supplemented with 10% heat inactivated FBS, L-glutamine (2 mM), penicillin (100 IU/mL), streptomycin (100 μg/mL), 100 μg/mL Normocin™, and 100 μg/mL of the selective antibiotic Zeocin™. All cell lines were purchased from the American Type Culture Collection (ATCC), except for A2780 and A431 which were from the European Collection of Authenticated Cell Cultures (ECACC), and SJ-G2 cell line which was from Dr Mary Danks, St Jude Children’s Research hospital, Memphis, TN.
(§3) Cells in logarithmic growth were transferred to 96-well plates. Cytotoxicity was determined by plating cells in duplicate in 100 μL medium at a density of 2,500–4,000 cells/well in 96 well plates. On day 0, (24 h after plating) when the cells were in logarithmic growth 100 μL medium with or without the test agent was added to each well. After 72 h drug exposure growth inhibitory effects were evaluated using the MTT (3-[4,5-dimethylthiazol-2-yl]-2,5-diphenyltetrazolium bromide) assay with absorbance read at 540 nm. An eight-point dose response curve was produced, using MS Excel software. From these dose-response curves, the GI50 value was calculated, representing the drug concentration at which cell growth is 50% inhibited based on the difference between the optical density values on day 0 and those at the end of drug exposure ([Bradshaw et al., 2008]; [Zhang et al., 2009]). Each data point was conducted in duplicate and the mean ± S.E.M. calculated from four to five replicates (n = 4 or 5), which were performed on separate occasions and separate cell line passages. Where shown, significant test results were determined using T-test analysis at p < 0.01 and p < 0.05 with a two tail distribution.

A431 (vulva/skin) cells = assay: MTT growth inhibition assay (72 h)
From the text: as §1, §2, §3

BE2-C (neuronal) cells = assay: MTT growth inhibition assay (72 h); settings: Neuron
From the text: as §1, §2, §3

BT20 breast cancer cells = assay: MTT growth inhibition assay (72 h)
From the text: as §1, §2, §3

[1] = system: BT474 breast cancer cells; assay: MTT growth inhibition assay (72 h)
From the text: as §1, §2, §3

Du145 (prostate) cells = assay: MTT growth inhibition assay (72 h)
From the text: as §1, §2, §3

H460 (lung) cells = assay: MTT growth inhibition assay (72 h)
From the text: as §1, §2, §3

HT29 (colorectal) cells = assay: MTT growth inhibition assay (72 h)
From the text: as §1, §2, §3

[2] = system: MCF-7 breast cancer cells; assay: MTT growth inhibition assay (72 h)
From the text: as §1, §2, §3

[3] = system: MCF10A normal breast cells; assay: MTT growth inhibition assay (72 h)
From the text: as §1, §2, §3

[4] = system: MDA-MB-231 breast cancer cells; assay: MTT growth inhibition assay (72 h); settings: MDA-MB-231, Breast (TN)
From the text: as §1, §2, §3

[5] = system: MDA-MB-468 breast cancer cells; assay: MTT growth inhibition assay (72 h); settings: MDA-MB-468, Breast (TN)
From the text: as §1, §2, §3

MIA (pancreas) cells = assay: MTT growth inhibition assay (72 h)
From the text: as §1, §2, §3

SJ-G2 (brain) cells = assay: MTT growth inhibition assay (72 h); settings: SJ-G2, Brain (GBM)
From the text: as §1, §2, §3

[6] = system: SKBR3 breast cancer cells; assay: MTT growth inhibition assay (72 h)
From the text: as §1, §2, §3

T47D breast cancer cells = assay: MTT growth inhibition assay (72 h); settings: Breast (ER/PR)
From the text: as §1, §2, §3

U87 (brain) cells = assay: MTT growth inhibition assay (72 h); settings: U87, Brain (GBM)
From the text: as §1, §2, §3

[7] = system: ZR-75-1 breast cancer cells; assay: MTT growth inhibition assay (72 h); settings: ZR-75-1, Breast (ER/PR)
From the text: as §1, §2, §3

[8] = system: broad panel of cancer cell lines and non-cancer breast cell line MCF10A; assay: MTT growth inhibition: GI50 ranges and selectivity across the cell line panel
From the text: as §1, §2, §3

[9] = Homo sapiens, A-431, A431, Skin (ER)
[10] = Homo sapiens, BT-20, BT20, Breast (TN)
[11] = Homo sapiens, BT-474, BT474, Breast (ER/PR/HER2)
[12] = Homo sapiens, NCI-H460, H460, Lung (ER)
[13] = Homo sapiens, HT-29, HT29, Colon
[14] = Homo sapiens, MCF7, MCF-7, Breast (ER)
[15] = Homo sapiens, SK-BR-3, SKBR3, Breast (HER2)

| Molecule | GI50 (A2780 (ovary) cells; Homo sapiens) [µM] | GI50 (A431 (vulva/skin) cells; [9]) [µM] | GI50 (BE2-C (neuronal) cells; Homo sapiens, BE(2)-C) [µM] | GI50 (BT20 breast cancer cells; [10]) [µM] | GI50 [1, 11] [µM] | GI50 (Du145 (prostate) cells; Homo sapiens, DU-145) [µM] | GI50 (H460 (lung) cells; [12]) [µM] | GI50 (HT29 (colorectal) cells; [13]) [µM] | GI50 [2, 14] [µM] | GI50 ([3]; Homo sapiens, MCF-10A) [µM] | GI50 ([4]; Homo sapiens) [µM] | GI50 (MIA (pancreas) cells; Homo sapiens) [µM] | GI50 (SJ-G2 (brain) cells; Homo sapiens) [µM] | GI50 [6, 15] [µM] | GI50 (T47D breast cancer cells; Homo sapiens) [µM] | GI50 (U87 (brain) cells; Homo sapiens) [µM] | GI50 ([7]; Homo sapiens) [µM] | also measured |
| --- | --- | --- | --- | --- | --- | --- | --- | --- | --- | --- | --- | --- | --- | --- | --- | --- | --- | --- |
| O=c1c2ccccc2cc2[nH]c3ccccc3n12 [Compound 12, Benzo[4,5]imidazo[1,2-b]isoquinolin-11(5H)-one] | 3 ± 2.1 | 0.48 ± 0.1 | 0.24 ± 0.079 | 0.16 ± 0.048 | > 50 | > 50 | > 50 | 0.21 ± 0.056 | 0.12 ± 0.05 | 0.54 ± 0.07 | > 50 | 0.62 ± 0.16 | 43 ± 10.3 | 0.2 ± 0.071 | 0.164 ± 0.083 | > 50 | 0.17 ± 0.023 | GI50 ([5]; Homo sapiens): 0.141 ± 0.074 µM |
| 10-Methyl-7H-benzo[de]benzo[4,5]imidazo[2,1-a]isoquinolin-7-one (7a) and 11-methyl-7H-benzo[de]benzo[4,5]imidazo[2,1-a]isoquinolin-7-one (7b) [Compound 7] | – | – | – | – | – | – | – | – | – | – | – | – | – | – | – | – | – | GI50 (A2780 (ovary) cells): 5.2 ± 0.63 µM; GI50 (A431 (vulva/skin) cells; A431, Skin (ER)): 4.8 ± 0.7 µM; GI50 (BE2-C (neuronal) cells): 4.9 ± 0.09 µM; GI50 (BT20 breast cancer cells; BT20, Breast (TN)): 5.2 ± 2 µM; GI50 ([1]; BT474, Breast (ER/PR/HER2)): > 50 µM; GI50 (Du145 (prostate) cells): 37 ± 7.8 µM; GI50 (H460 (lung) cells; H460, Lung (ER)): 45 ± 8 µM; GI50 (HT29 (colorectal) cells; HT29, Colon): 5 ± 0.07 µM; GI50 ([2]; MCF-7, Breast (ER)): 3.6 ± 0.4 µM; GI50 [3]: 4.7 ± 0.12 µM; GI50 [4]: 25 ± 7.1 µM; GI50 [5]: 0.35 ± 0.13 µM; GI50 (MIA (pancreas) cells): 8.1 ± 0.97 µM; GI50 (SJ-G2 (brain) cells): > 50 µM; GI50 ([6]; SKBR3, Breast (HER2)): 1.2 ± 0.93 µM; GI50 (T47D breast cancer cells): 3.1 ± 0.17 µM; GI50 (U87 (brain) cells): 17 ± 2.7 µM; GI50 [7]: 0.19 ± 0.045 µM |
| O=c1c2cccc3cccc(c32)c2nc3ccc(Cl)cc3n12 [Compound 3, 10-Chloro-7H-benzo[de]benzo[4,5]imidazo[2,1-a]isoquinolin-7-one] | 6.2 ± 0.46 | 12 ± 1.8 | 17 ± 4.3 | 33 ± 4 | > 50 | 22 ± 3.1 | 7.2 ± 1.16 | 21 ± 3.3 | 7.9 ± 1.14 | 3.9 ± 0.21 | 17 ± 6.1 | > 50 | 33 ± 8.3 | 0.3 ± 0.12 | 11 ± 1.4 | 18 ± 3.8 | 0.48 ± 0.24 | GI50 ([8]; Homo sapiens, read-out: GI50 (range over cell lines and both compounds 3 and 4), ZR-75-1, SKBR3 and MDA-MB-468): 0.26 to 0.88 µM |
| O=c1c2cccc3cccc(c32)c2nc3ccccc3n12 [Compound 5, 7H-Benzo[de]benzo[4,5]imidazo[2,1-a]isoquinolin-7-one] | 2.2 ± 0.21 | 0.05 ± 0.013 | 5.1 ± 0.74 | 0.41 ± 0.39 | 1.5 ± 1.3 | 4.1 ± 0.03 | 0.61 ± 0.13 | 2.1 ± 0.3 | 2.1 ± 0.44 | 3.2 ± 0.32 | 5.5 ± 1.8 | 5.2 ± 0.73 | 4.6 ± 0.23 | 0.032 ± 0.014 | 0.2 ± 0.073 | 7 ± 0.033 | 0.026 ± 0.015 | fold greater response (selectivity) in MDA-MB-468 than in normal MCF10A breast cells ([8]; GI50 MCF10A / GI50 MDA-MB-468): 3,200 fold; growth inhibition compared with normal cells (fold, range over cell lines) ([8]; H460, A431, T47D, ZR-75-1, SKBR3, MDA-MB-468, BT20 vs MCF10A): 5 to 3200 fold; GI50 ([8]; Homo sapiens, T47D, ZR-75-1, SKBR3, MDA-MB-468 and BT20, read-out: GI50 (range over cell lines)): 0.001 to 0.41 µM; GI50 ([8]; Homo sapiens, all other cell populations (than H460, A431, T47D, ZR-75-1, SKBR3, MDA-MB-468, BT20), read-out: GI50 (range over cell lines)): 1.5 to 7 µM; GI50 ([8]; Homo sapiens, other cell lines HT29, U87, SJ-G2, A2780, DU145, BE2-C, MIA, MDA-MB-231, read-out: GI50 (range over cell lines)): 2.1 to 7 µM; fold more potent than head group substituted analogues 3, 4, 6, 7, 8 and 9 ([8]; across the cell lines examined (Table 1)): > 10 fold; GI50 ([8]; select breast cancer cell lines MCF-7, T47D, ZR-75-1, SKBR3, MDA-MB-468, BT20, BT474, read-out: GI50 values (range over cell lines)): 0.001 to 2.1 µM |
